Source: patent publication US5229265A, “Process for analyzing clastogenic agents” (Litron Laboratories, priority 1990, dated 1993)
Several values for one entry are separate records, joined by “and”; a condition that tells them apart may be missing. Equal values may be shown once. Entries after “also recorded” stand apart in the source; their conditions may differ.

Tests used:
Assay type in all cases: in vivo, mouse
[1] = system: micronucleated cells in blood; assay: Flow cytometric micronucleus assay, dual parameter data, cyclophosphamide, per 10^6 cells; conditions: for Mns (T = 96 hr): Hoechst 33258; for Δ (T96 - T0): per mouse difference and mean of differences
Description: The fixation procedure can affect the permeability of a cell, cell morphology and the amount of undesirable autofluorescence that is associated with a cell preparation. Fixing procedures can cause changes in cell structure (that are reflected in the light scatter patterns) as well as changes in the distribution of the dye molecules within the cells (resulting in altered fluorescence emission patterns). Practioners of the art are unaware that fixing the cells at ultralow temperatures circumvents these fixation problems and provides cells that are suitable for subsequent staining and FCM analysis. Initially, the cells are centrifuged in order to separate them from serum components which could aggregate when added to cold fixative. To fix cells, a fresh blood sample (25 μl) containing an anticogulant is suspended in a solution containing 1% BSA and 10% dimethylsulfoxide (DMSO) in PBS (2 ml). The cells are centrifuged at 500×g for five minutes at room temperature. The supernatant is discarded and the pellet is resuspended in the small amount of residual supernatant that remains. This cell suspension is cooled to 0° C., the cells are diluted further with cold (-70° C.) absolute methanol (2 ml) and it is incubated at -70° C. for five minutes. The cell suspension is then immediately diluted with 1% BSA in PBS (10 ml) and is centrifuged at 500×g for 5 minutes. The low temperature treatment yields fixed cells with good morphology as viewed with either inverted phase contrast microscopy or fluorescent microscopy. Autofluorescence of these cells is very low, in contrast to glutaraldehyde or paraformaldehyde fixation procedures that are widely used in the art. Other volumes of blood and/or BSA in PBS are also compatible with this cell fixing process. The volume of methanol should be in the range of 0.5 to 20 ml. The temperature of the methanol should be in the range -30° C. to -90° C., and the fixation time in the range of 1 minute to 60 minutes for good results. When cells are fixed in alcohol at higher temperatures (e.g. in the range of +37° C. to - 20° C.), they tend to aggregate and quickly settle to the bottom of the centrifuge tube. […] Other ultra cold solvents can be used in place of methanol, such as acetone, methanol/acetone solutions, etc.. Two fixed cell samples can be prepared for each mouse, an initial (time=0) sample and a final time=96 hr sample. Cells fixed in this way can be stored at 0° C. for weeks with no significant deterioration and are ready for staining and MN analysis.
It is known to practioners in the art that a variety of fluorescent dyes can be used to stain the DNA and RNA of cells. Even so, the specific stain, combinations or staining conditions that are optimum for the FCM based micronucleus assay are unresolved. […] These dye can be used individually or together to stain different cell populations. By choosing proper concentrations of these two dyes in conjunction with 363 nm excitation wavelength, it is possible to obtain a blue fluorescence signal from the Hoechst 33258 labeled micronucleii. A red fluorescence signal can be obtained from propidium iodide labeled PCEs. Whereas neither the dye combination, the dye concentration, the dye excitation wavelengths nor the appropriate buffer systems are known to practitioners in the art for an FCM based micronucleus assay, the following staining protocal is submitted as an embodiment of the present invention. A 10× stock solution of the dye should be prepared by dissolving 14.3 mg Hoechst 33258 in methanol (100 ml). A working solution is then prepared by adding 0.25 ml of the 10× stock solution to 9.75 ml of complete Sorensen's buffer. This working solution is then passed through an 0.2 micron acro-filter disk (Gelman Sciences) to remove any debris. The filtered working solution is further diluted by adding 25 μl to 967.5 μl of saline buffer (9 g NaCl and 0.445 g sodium bicarbonate per liter). […]

[2] = system: micronucleated cells in blood; assay: Flow cytometric micronucleus assay, dual parameter data, MMS, Hoechst 33258 stain, per 500,000 cells
Description: The fixation procedure can affect the permeability of a cell, cell morphology and the amount of undesirable autofluorescence that is associated with a cell preparation. Fixing procedures can cause changes in cell structure (that are reflected in the light scatter patterns) as well as changes in the distribution of the dye molecules within the cells (resulting in altered fluorescence emission patterns). Practioners of the art are unaware that fixing the cells at ultralow temperatures circumvents these fixation problems and provides cells that are suitable for subsequent staining and FCM analysis. Initially, the cells are centrifuged in order to separate them from serum components which could aggregate when added to cold fixative. To fix cells, a fresh blood sample (25 μl) containing an anticogulant is suspended in a solution containing 1% BSA and 10% dimethylsulfoxide (DMSO) in PBS (2 ml). The cells are centrifuged at 500×g for five minutes at room temperature. The supernatant is discarded and the pellet is resuspended in the small amount of residual supernatant that remains. This cell suspension is cooled to 0° C., the cells are diluted further with cold (-70° C.) absolute methanol (2 ml) and it is incubated at -70° C. for five minutes. The cell suspension is then immediately diluted with 1% BSA in PBS (10 ml) and is centrifuged at 500×g for 5 minutes. The low temperature treatment yields fixed cells with good morphology as viewed with either inverted phase contrast microscopy or fluorescent microscopy. […] Cells fixed in this way can be stored at 0° C. for weeks with no significant deterioration and are ready for staining and MN analysis.
It is known to practioners in the art that a variety of fluorescent dyes can be used to stain the DNA and RNA of cells. […] By choosing proper concentrations of these two dyes in conjunction with 363 nm excitation wavelength, it is possible to obtain a blue fluorescence signal from the Hoechst 33258 labeled micronucleii. A red fluorescence signal can be obtained from propidium iodide labeled PCEs. […]

[3] = system: micronucleated cells in blood; assay: Flow cytometric micronucleus assay, dual parameter data, MMS, Hoechst 33258 & propidium iodide, per 500,000 cells; conditions: MMS 100 μg/g body weight IP at 0 and 48 hours
Description: The fixation procedure can affect the permeability of a cell, cell morphology and the amount of undesirable autofluorescence that is associated with a cell preparation. Fixing procedures can cause changes in cell structure (that are reflected in the light scatter patterns) as well as changes in the distribution of the dye molecules within the cells (resulting in altered fluorescence emission patterns). Practioners of the art are unaware that fixing the cells at ultralow temperatures circumvents these fixation problems and provides cells that are suitable for subsequent staining and FCM analysis. […] Cells fixed in this way can be stored at 0° C. for weeks with no significant deterioration and are ready for staining and MN analysis.
When two dyes are used for simultaneous micronucleus and PCE discrimination, the cell suspension is prepared as follows: The Hoechst 33258 working solution described above is prepared and is filtered through an 0.2 micron Acro-disk (Gilman Sciences). […] When blood from a malaria (P. berghei) infected mouse was fixed and stained by this procedure, the bivariate pattern shown in FIG. 1B resulted, in which a stronger red fluorescence signal was obtained. […] The pH of the stained solution is important for good fluorescence emission profiles and resolution of the different cell populations. […]

[4] = CP 100 μg/g body wt IP at 0 and 48 hours
[5] = CP 100 μg/g body wt IP at 0 and 48 hours, listed as CP
[6] = MMS 100 μg/g body weight IP at 0 and 48 hours, Hoechst 33258

Compound	Mns (T = 96 hr) [1, 4] [MNs per 10^6 cells]	Mns (T = 96 hr) [1, 5]	Δ (T96 - T0) [1, 4] [MNs per 10^6 cells]	Δ (T96 - T0) [1, 5]	Difference Mn96 - Mn0 (difference of the means) ([1]; CP 100 μg/g body wt IP at 0 and 48 hours, t=96 hr mean minus t=0 mean) [MNs per 10^6 cells]	MN formation ([1]; CP 100 μg/g body wt at 0 and 48 hours)	Increase in MNs (MeanCP - MeanSaline), from mean Δ (T96 - T0) ([1]; first method: difference of mean individual Δ values, CP minus saline) [MNs per 10^6 cells]	Increase in MNs (MeanCP - MeanSaline), from Mn96 - Mn0 of means ([1]; second method: difference of means, CP minus saline) [MNs per 10^6 cells]	Increase in MNs, means of the t=96 hr samples (dosed minus controls) ([1]; third method: t=0 values ignored, 1,000,000 cells) [MN-cells]	Mns (96 hr) [2, 6]	Δ (T96 - T0), change in MNs [2, 6]	change (Δ) in MNs versus control mice ([2]; MMS 100 μg/g body weight at 0 and 48 hours, 96 hr blood)	Mns (96 hr) [3]	ΔMns (T96 - T0) [3]
O=P1(N(CCCl)CCCl)NCCCO1 (centres unmarked) [cyclophosphamide]	2954	2591 MNs per 10^6 cells and 2453 MNs per 10^6 cells and 2626 MNs per 10^6 cells and 2708 MNs per 10^6 cells and 2594 ± 106 MNs per 10^6 cells	1124	1099 MNs per 10^6 cells and 1039 MNs per 10^6 cells and 1074 MNs per 10^6 cells and 1282 MNs per 10^6 cells and 1124 ± 108 MNs per 10^6 cells	1123	large increase in MN formation	1047	1047	992	–	–	–	–	–
COS(C)(=O)=O [MMS, methyl methanesulfonate]	–	–	–	–	–	–	–	–	–	1654 MNs per 500,000 cells and 1424 MNs per 500,000 cells and 1360 MNs per 500,000 cells and 1662 MNs per 500,000 cells	713 MNs per 500,000 cells and 620 MNs per 500,000 cells and 512 MNs per 500,000 cells and 540 MNs per 500,000 cells and 596 ± 90 MNs per 500,000 cells	significantly higher than the Δ values for the control mice; also recorded: increase in the number of MNs in the analysis area relative to the initial blood	1416 MNs per 500,000 cells and 1394 MNs per 500,000 cells and 1282 MNs per 500,000 cells and 1535 MNs per 500,000 cells	535 MNs per 500,000 cells and 563 MNs per 500,000 cells and 657 MNs per 500,000 cells and 399 MNs per 500,000 cells and 520 MNs per 500,000 cells and 535 ± 107 MNs per 500,000 cells
